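Interpolation was linear, between the two tested concentrations surrounding the appropriate level; five concentrations were tested over 48 hours in 96-well plates. The concentration for full growth arrest is given as TGI.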
Columns and labels:
Experiment in all cases: growth of human tumour cells (NCI), 48 h
HL-60(TB) leukemia = test system: HL-60(TB) leukemia
TK-10 renal = test system: TK-10 renal
HOP-62 NSCLC = test system: HOP-62 NSCLC
HT29 colon = test system: HT29 colon
ACHN renal = test system: ACHN renal
PC-3 prostate = test system: PC-3 prostate
IGROV1 ovarian = test system: IGROV1 ovarian
HCC-2998 colon = test system: HCC-2998 colon
T-47D breast = test system: T-47D breast
A498 renal = test system: A498 renal

Structure (SMILES) | TGI (HL-60(TB) leukemia) [µM] | TGI (TK-10 renal) [µM] | TGI (HOP-62 NSCLC) [µM] | TGI (HT29 colon) [µM] | TGI (ACHN renal) [µM] | TGI (PC-3 prostate) [µM] | TGI (IGROV1 ovarian) [µM] | TGI (HCC-2998 colon) [µM] | TGI (T-47D breast) [µM] | TGI (A498 renal) [µM]
CCOC(=O)N1CCN(Cc2cc(=O)n3cc(C)ccc3n2)CC1 | > 100 | > 100 | > 100 | > 100 | > 100 | > 100 | > 100 | > 100 | – | –
COc1cc(N(CCC#N)CCC#N)ccc1/C(N=Nc1ccc(C)cc1)=N/NC(=O)c1cc(Br)ccc1O | 40.9 | 82 | 96.5 | > 100 | > 100 | 66.5 | 21.9 | 50.1 | 47.3 | –
O=C1CC2CC=C[C@H]3c4cc5c(cc4C(=O)N1C23)OCO5 (stereo partly drawn) | > 50 | > 50 | > 50 | > 50 | > 50 | – | > 50 | > 50 | – | –
CC(=O)Oc1c(C)cc(-c2cc(C)c(OC(C)=O)c(C)c2)cc1C | > 100 | 91.6 | > 100 | > 100 | > 100 | > 100 | > 100 | – | – | –
O=C1C=C(N2CCCC2)C=C(N2CCCC2)C1 | > 100 | > 100 | > 100 | > 100 | > 100 | – | > 100 | > 100 | – | –
Cc1ccc(/C=C2\CN(C)CC3C(c4ccc(C)cc4)=C(C#N)C(=O)NC23)cc1 (stereo not drawn) | – | > 50 | > 50 | > 50 | > 50 | > 50 | > 50 | > 50 | > 50 | > 50
CCOc1ccc(N2C(=O)C3c4[nH]c5ccccc5c4C4CCC(C(C)(C)C)CC4C3C2=O)cc1 (stereo not drawn) | > 100 | – | > 100 | > 100 | > 100 | – | > 100 | 79.4 | – | > 100
CC(=O)Oc1ccccc1[C@H]1CC(=O)C[C@H](c2ccccc2OC(C)=O)C12C(=O)c1ccccc1C2=O | > 100 | – | > 100 | > 100 | – | > 100 | > 100 | 85.4 | > 100 | > 100
O=C(O)CCC(NC(=O)c1ccc(Nc2nc3ccccc3nc2C(=O)O)cc1)C(=O)O (stereo not drawn) | > 100 | > 100 | > 100 | > 100 | > 100 | – | > 100 | > 100 | > 100 | –
COCCOCN(C(=O)C1=CCC2(CC1)OCCO2)c1ccccc1I | – | > 50 | > 50 | > 50 | > 50 | > 50 | – | > 50 | > 50 | > 50
COc1ccc2c(c1)c1nn(CCN(C)C)c3ccc4c(=O)n(CCN(C)C)c(=O)n2c4c13 | 0.34 | 0.696 | 0.217 | – | 0.432 | 0.262 | 1.65 | 0.0546 | > 25.8 | 0.526
COc1cc([C@@H]2c3cc4c(cc3[C@H](OC3OC5COC(C(C)C)OC5C(O)C3O)C3COC(=O)[C@@H]32)OCO4)cc(OC)c1O (stereo partly drawn) | > 100 | 93.5 | 24.4 | 11.1 | 15.6 | 14.4 | 21.8 | – | 60.1 | 22.8
Cc1nc(-c2ccccc2)c(C)n2c1nc1ccccc12 | 44.4 | 84 | > 100 | > 100 | – | > 100 | > 100 | – | 45.3 | > 100
CN(C)CCN1C(=O)CC[C@@]2(C)C1=CC[C@@H]1[C@@H]2CC[C@@]2(C)[C@H]1CC[C@]2(C)O | > 100 | > 100 | > 100 | > 100 | > 100 | > 100 | > 100 | – | > 100 | > 100
NS(=O)(=O)c1ccc(NC(=O)c2cc([N+](=O)[O-])cc([N+](=O)[O-])c2)cc1 | 97.4 | > 100 | > 100 | > 100 | – | 86.8 | 79.9 | – | 85.8 | > 100
CCN(CC)CCNC(=O)c1ccc([N+](=O)[O-])cc1OC | > 100 | > 100 | > 100 | > 100 | > 100 | – | > 100 | – | – | > 100
COc1c(Cl)ccc(Cl)c1C(=O)NNC(=O)c1c(Cl)c(Cl)c(Cl)c(Cl)c1-c1nc2ccc(C(=O)c3ccccc3)cc2[nH]1 | > 100 | > 100 | > 100 | > 100 | > 100 | > 100 | > 100 | – | > 100 | > 100
O=C(O)C(CS)NCc1c2ccccc2[n+]([O-])c2ccccc12 (stereo not drawn) | 57 | > 100 | > 100 | > 100 | > 100 | – | > 100 | > 100 | – | > 100
O=C1Nc2cccc3ncn(c23)C2=C1CCCC2 | > 100 | > 100 | – | – | > 100 | – | > 100 | > 100 | – | –
Cn1c(=O)n2n(c1=O)Cc1cccc3cccc(c13)C2 | 4.18 | > 100 | – | > 100 | > 100 | > 100 | – | > 100 | > 100 | > 100
CC(=O)Nc1ccc(Nc2cc(=O)n(C)c(=O)[nH]2)cc1 | – | > 100 | > 100 | > 100 | > 100 | > 100 | > 100 | > 100 | > 100 | > 100
Cc1ccc(-c2sc(-c3ccc(C)cc3)c3c2C2CCC3C2)cc1 | > 50 | > 50 | > 50 | > 50 | > 50 | > 50 | > 50 | – | > 50 | > 50
N=C(/C=C/c1ccc(-c2cn3cc(/C=C/C(=N)N4CCCC4)ccc3n2)cc1)N1CCCC1 | > 100 | > 100 | > 100 | – | > 100 | > 100 | > 100 | > 100 | > 100 | > 100
CC(=O)Oc1ccc(N2C(=O)C3c4[nH]c5ccccc5c4C4CCC(C(C)(C)C)CC4C3C2=O)cc1 (stereo not drawn) | 5.47 | 10.7 | 13.5 | 9.38 | 12.2 | 10.4 | 19.9 | 5.14 | – | 14.7
CCOC(=O)c1cccc(NC(=O)CBr)c1 | 3.58 | 3.18 | 3.41 | 3.32 | 3.09 | 2.94 | 2.77 | 5.28 | – | 14.7

Reference: PubChem BioAssay (NCI)
